Experiment [1] has as its system AKT1/2/3 (Ser473) phosphorylation (mTORC2) in MDA-MB-468 cells. Put plainly: Cell based AlphaLISA assay, mTOR kinase cellular assay: inhibition of p-Akt (S473) in MDA-MB-468 cells. The note with it: Homo sapiens, read-out: pIC50 for Inhibition of mTORC1 and mTORC2 Substarte Phosphorylation p-AKT1/2/3-(S473) (converted). The method in brief:
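MDA-MB-468 cells treated with compound at 0.017-1,000 nM for two to four hours at 37° C, then lysed. Phospho-AKT1/2/3 S473, 4EBP1 T37/46 and P70S6K T389 quantified by AlphaLISA SureFire Ultra in duplicate; IC50 from normalized regression with control-based normalization.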
A general note: Alpha assays give light when donor and acceptor beads are brought close together.

The test system of experiment [2] is 4EBP1 (Thr37/46) phosphorylation (mTORC1) in MDA-MB-468 cells. Put plainly: Cell based AlphaLISA assay, mTOR kinase cellular assay: inhibition of p-4E-BP1 (T37/46) in MDA-MB-468 cells. The note with it: Homo sapiens, read-out: pIC50 for Inhibition of mTORC1 and mTORC2 Substarte Phosphorylation p-4E-BP1-(T37/46) (converted). As for the experimental part:
(§1) Cell Based AlphaLISA Assays for Determining IC50 For Inhibition of P-Akt (S473), P-4E-BP1 (T37/46), and P-P70S6K (T389) in MDA-MB-468 Cells
(§2) mTOR Kinase Cellular Assay
(§3) To measure functional activity of mTORC1 and mTORC2 in cells the phosphorylation of 4EBP1 (Thr37/46) and P70S6K (Thr389), and AKT1/2/3 (Ser473) was monitored using AlphaLisa SureFire Ultra Kits (Perkin Elmer). MDA-MB-468 cells (ATCC® HTB-132) were cultured in 96-well tissue culture plates and treated with compounds in the disclosure at concentrations varying from 0.017-1,000 nM for two to four hours at 37° C. Incubations were terminated by removal of the assay buffer and addition of lysis buffer provided with the assay kit. Samples were processed according to the manufacturer's instructions. The Alpha signal from the respective phosphoproteins was measured in duplicate using a microplate reader (Envision, Perkin-Elmer or Spectramax M5, Molecular Devices). Inhibitor concentration response curves were analyzed using normalized IC50 regression curve fitting with control based normalization.

In experiment [3] the test system is P70S6K (Thr389) phosphorylation (mTORC1) in MDA-MB-468 cells. Put plainly: Cell based AlphaLISA assay, mTOR kinase cellular assay: inhibition of p-P70S6K (T389) in MDA-MB-468 cells. The note with it: Homo sapiens, read-out: pIC50 for Inhibition of mTORC1 and mTORC2 Substarte Phosphorylation p-P70S6K-(T389) (converted). As for the experimental part:
as §1, §2, §3

SMILES strings stand for the structures. Bounds are passed on as bounds.

As to `CO[C@H]1C[C@@H]2CC[C@@H](C)[C@@](O)(O2)C(=O)C(=O)N2CCCC[C@H]2C(=O)O[C@H]([C@H](C)C[C@@H]2CC[C@@H](OC(=O)NCc3cnc(N4CCN(c5ncc(C(=O)NCCOCCOCCOCCOCCC(=O)N6CCc7cc(Cn8nc(-c9ccc%10oc(N)nc%10c9)c9c(N)ncnc98)ccc7C6)cn5)CC4)nc3)[C@H](OC)C2)C[C@@H](O)[C@H](C)/C=C(\C)[C@@H](O)[C@@H](OC)C(=O)[C@H](C)C[C@H](C)/C=C/C=C/C=C/1C` [Example 28], the IC50 was greater than 1000 nM in experiment [1], no more than 3.16 nM in experiment [2] and no more than 1 nM in experiment [3].

As to `CO[C@H]1C[C@@H]2CC[C@@H](C)[C@@](O)(O2)C(=O)C(=O)N2CCCC[C@H]2C(=O)O[C@H]([C@H](C)C[C@@H]2CC[C@@H](OC(=O)N3CCc4nc(N5CCN(c6ncc(C(=O)NCCOCCOCCOCCOCCC(=O)NCCCCn7nc(-c8cnc9[nH]ccc9c8)c8c(N)ncnc87)cn6)CC5)ncc4C3)[C@H](OC)C2)CC(=O)[C@H](C)/C=C(\C)[C@@H](O)[C@@H](OC)C(=O)[C@H](C)C[C@H](C)/C=C/C=C/C=C/1C` [Example 35], the figures for the IC50 in experiment [1], in experiment [2] and in experiment [3] were 3.16 to 31.6 nM, no more than 3.16 nM and no more than 1 nM, respectively.

In the case of `CO[C@H]1C[C@@H]2CC[C@@H](C)[C@@](O)(O2)C(=O)C(=O)N2CCCC[C@H]2C(=O)O[C@H]([C@H](C)C[C@@H]2CC[C@@H](OC(=O)NCCOCCOCCOCCOCCC(=O)NCCOCCOCCOCCOCCC(=O)N3CCc4cc(Cn5nc(-c6ccc7oc(N)nc7c6)c6c(N)ncnc65)ccc4C3)[C@H](OC)C2)C[C@@H](OC)[C@H](C)/C=C(\C)[C@@H](O)[C@@H](OC)C(=O)[C@H](C)C[C@H](C)/C=C/C=C/C=C/1C` [Example 17], the IC50 in experiment [1] was 3.16 to 31.6 nM; in experiment [2] it was no more than 3.16 nM; in experiment [3], no more than 1 nM.

As to `CO[C@H]1C[C@@H]2CC[C@@H](C)[C@@](O)(O2)C(=O)C(=O)N2CCCC[C@H]2C(=O)O[C@H]([C@H](C)C[C@@H]2CC[C@@H](OC(=O)N3CCc4nc(N5CCN(CCOCCN6CCN(c7ncc(C(=O)N8CCc9cc(Cn%10nc(-c%11cnc%12[nH]ccc%12c%11)c%11c(N)ncnc%11%10)ccc9C8)cn7)CC6)CC5)ncc4C3)[C@H](OC)C2)CC(=O)[C@H](C)/C=C(\C)[C@@H](O)[C@@H](OC)C(=O)[C@H](C)C[C@H](C)/C=C/C=C/C=C/1C` [Example 128], the IC50 in experiment [1] is 31.6 to 1000 nM; in experiment [2], 3.16 to 31.6 nM; in experiment [3], no more than 1 nM.

Take `CO[C@H]1C[C@@H]2CC[C@@H](C)[C@@](O)(O2)C(=O)C(=O)N2CCCC[C@H]2C(=O)O[C@H]([C@H](C)C[C@@H]2CC[C@@H](OC(=O)NCc3cnc(N4CCN(C(=O)CCOCCN5CCN(c6ncc(C(=O)NCCOCCC(=O)NCCCCn7nc(-c8cnc9[nH]ccc9c8)c8c(N)ncnc87)cn6)CC5)CC4)nc3)[C@H](OC)C2)CC(=O)[C@H](C)/C=C(\C)[C@@H](O)[C@@H](OC)C(=O)[C@H](C)C[C@H](C)/C=C/C=C/C=C/1C` [Example 66]: the IC50 in experiment [1] was 3.16 to 31.6 nM; in experiment [2] it was 31.6 to 1000 nM; in experiment [3], 10 to 1000 nM.

On to `CO[C@H]1C[C@@H]2CC[C@@H](C)[C@@](O)(O2)C(=O)C(=O)N2CCCC[C@H]2C(=O)O[C@H]([C@H](C)C[C@@H]2CC[C@@H](OC(=O)N3CCc4nc(N5CCN(c6ncc(C(=O)NCCOCCOCCOCCOCCC(=O)N7CCc8cc(Cn9nc(-c%10ccc%11oc(N)nc%11c%10)c%10c(N)ncnc%109)ccc8C7)cn6)CC5)ncc4C3)[C@H](OC)C2)CC(=O)[C@H](C)/C=C(\C)[C@@H](O)[C@@H](OC)C(=O)[C@H](C)C[C@H](C)/C=C/C=C/C=C/1C` [Example 39], for which the IC50 in experiment [1] is no more than 3.16 nM; in experiment [2] it was no more than 3.16 nM; in experiment [3], no more than 1 nM.

As to `CO[C@H]1C[C@@H]2CC[C@@H](C)[C@@](O)(O2)C(=O)C(=O)N2CCCC[C@H]2C(=O)O[C@H]([C@H](C)C[C@@H]2CC[C@@H](OC(=O)NCc3cnc(N4CCN(c5ncc(C(=O)NCCOCCOCCOCCOCCC(=O)NCCCCn6nc(-c7cnc8[nH]ccc8c7)c7c(N)ncnc76)cn5)CC4)nc3)[C@H](OC)C2)CC(=O)[C@H](C)/C=C(\C)[C@@H](O)[C@@H](OC)C(=O)[C@H](C)C[C@H](C)/C=C/C=C/C=C/1C` [Example 32], the IC50 is 3.16 to 31.6 nM in experiment [1], no more than 3.16 nM in experiment [2] and no more than 1 nM in experiment [3].

Consider `CO[C@H]1C[C@@H]2CC[C@@H](C)[C@@](O)(O2)C(=O)C(=O)N2CCCC[C@H]2C(=O)O[C@H]([C@H](C)C[C@@H]2CC[C@@H](OC(=O)NCc3cnc(N4CCN(c5ncc(C(=O)NCCOCCOCCOCCOCCC(=O)N6CCc7cc(Cn8nc(-c9cnc%10[nH]ccc%10c9)c9c(N)ncnc98)ccc7C6)c(N)n5)CC4)nc3)[C@H](OC)C2)CC(=O)[C@H](C)/C=C(\C)[C@@H](O)[C@@H](OC)C(=O)[C@H](C)C[C@H](C)/C=C/C=C/C=C/1C` [Example 108], for which the IC50 in experiment [1] is greater than 1000 nM; in experiment [2], greater than 1000 nM; in experiment [3] it was 1 to 10 nM.

On to `CO[C@H]1C[C@@H]2CC[C@@H](C)[C@@](O)(O2)C(=O)C(=O)N2CCCC[C@H]2C(=O)O[C@H]([C@H](C)C[C@@H]2CC[C@@H](OC(=O)N3CCc4nc(N5CCN(CCOCCOCCOCCOCCOCCC(=O)N6CCc7cc(Cn8nc(-c9cnc%10[nH]ccc%10c9)c9c(N)ncnc98)ccc7C6)CC5)ncc4C3)[C@H](OC)C2)CC(=O)[C@H](C)/C=C(\C)[C@@H](O)[C@@H](OC)C(=O)[C@H](C)C[C@H](C)/C=C/C=C/C=C/1C` [Example 38], for which the IC50 is greater than 1000 nM in experiment [1], greater than 1000 nM in experiment [2] and no more than 1 nM in experiment [3].

As for `CO[C@H]1C[C@@H]2CC[C@@H](C)[C@@](O)(O2)C(=O)C(=O)N2CCCC[C@H]2C(=O)O[C@H]([C@H](C)C[C@@H]2CC[C@@H](OC(=S)NCc3cnc(N4CCN(C(=O)CCOCCN5CCN(c6ncc(C(=O)N7CCc8cc(Cn9nc(-c%10ccc%11oc(N)nc%11c%10)c%10c(N)ncnc%109)ccc8C7)cn6)CC5)CC4)nc3)[C@H](OC)C2)C[C@@H](O)[C@H](C)/C=C(\C)[C@@H](O)[C@@H](OC)C(=O)[C@H](C)C[C@H](C)/C=C/C=C/C=C/1C` [Example 117], the IC50 is 3.16 to 31.6 nM in experiment [1], no more than 3.16 nM in experiment [2] and no more than 1 nM in experiment [3].

In the case of `CO[C@H]1C[C@@H]2CC[C@@H](C)[C@@](O)(O2)C(=O)C(=O)N2CCCC[C@H]2C(=O)O[C@H]([C@H](C)C[C@@H]2CC[C@@H](OC(=O)NCCOCCOCCOCCOCCC(=O)NCc3cnc(N4CCN(c5ncc(C(=O)NCCCCn6nc(-c7cnc8[nH]ccc8c7)c7c(N)ncnc76)cn5)CC4)nc3)[C@H](OC)C2)CC(=O)[C@H](C)/C=C(\C)[C@@H](O)[C@@H](OC)C(=O)[C@H](C)C[C@H](C)/C=C/C=C/C=C/1C` [Example 47], the IC50 was 3.16 to 31.6 nM in experiment [1], no more than 3.16 nM in experiment [2] and no more than 1 nM in experiment [3].

On to `CO[C@H]1C[C@@H]2CC[C@@H](C)[C@@](O)(O2)C(=O)C(=O)N2CCCC[C@H]2C(=O)O[C@H]([C@H](C)C[C@@H]2CC[C@@H](OC(=O)NCc3cnc(N4CCN(c5ncc(C(=O)NCCOCCOCCOCCOCCC(=O)N6CCc7cc(Cn8nc(-c9ccc%10oc(N)nc%10c9)c9c(N)ncnc98)ccc7C6)cn5)CC4CO)nc3)[C@H](OC)C2)CC(=O)[C@H](C)/C=C(\C)[C@@H](O)[C@@H](OC)C(=O)[C@H](C)C[C@H](C)/C=C/C=C/C=C/1C` (stereo partly shown) [Example 40], for which the results for the IC50 in experiment [1], in experiment [2] and in experiment [3] were 3.16 to 31.6 nM, no more than 3.16 nM and no more than 1 nM, respectively.

On to `CO[C@H]1C[C@@H]2CC[C@@H](C)[C@@](O)(O2)C(=O)C(=O)N2CCCC[C@H]2C(=O)O[C@H]([C@H](C)C[C@@H]2CC[C@@H](OC(=O)NCc3cnc(N4CCN(C(=O)CCOCCN5CCN(c6ncc(C(=O)N7CCc8cc(Cn9nc(-c%10cnc%11[nH]ccc%11c%10)c%10c(N)ncnc%109)ccc8C7)cn6)CC5)CC4)nc3)[C@H](OC)C2)CC(=O)[C@H](C)/C=C(\C)[C@@H](O)[C@@H](OC)C(=O)[C@H](C)C[C@H](C)/C=C/C=C/C=C/1C` [Example 52], for which the IC50 was no more than 3.16 nM in experiment [2] and no more than 1 nM in experiment [3].

Regarding `CO[C@H]1C[C@@H]2CC[C@@H](C)[C@@](O)(O2)C(=O)C(=O)N2CCCC[C@H]2C(=O)O[C@H]([C@H](C)C[C@@H]2CC[C@@H](OC(=O)NCc3cnc(N4CCN(c5ncc(C(=O)N6CCN(c7ncc(C(=O)N8CCc9cc(Cn%10nc(-c%11cnc%12[nH]ccc%12c%11)c%11c(N)ncnc%11%10)ccc9C8)cn7)CC6)cn5)CC4)nc3)[C@H](OC)C2)CC(=O)[C@H](C)/C=C(\C)[C@@H](O)[C@@H](OC)C(=O)[C@H](C)C[C@H](C)/C=C/C=C/C=C/1C` [Example 61], the figures for the IC50 in experiment [1] and in experiment [3] were greater than 1000 nM and no more than 1 nM, respectively.

(Values after patent US20230233569A1 (Revolution Medicines, Inc., priority 2020, published 2023).)
